From patent publication US4847293A, “Tetraenyl prostaglandins” (priority 1988, dated 1989) come the findings set out here.

One data set has as its system diarrhea. Put plainly: Diarrhea Assay. The format is in vivo, male Charles River rats.
Another data set in a line: Diarrhea Assay. The format is in vivo, male Charles River rats. The settings on record: in vivo.

Each structure is given as a SMILES string.

With `COC(=O)CC/C=C\CC[C@H]1C(=O)C[C@@H](O)[C@@H]1/C=C/CC(C)(O)/C=C/C=C(C)C` (relative stereo) [Example 2], the “Diarrhea Assay Rat (iv), result in words” value in the data set on diarrhea (Rat (iv), at 3200 mcg/kg) is “inactive”. In addition, the TD50 in “Diarrhea Assay” (Rat (iv) per table head, method text: intragastric, fasted rats, up to eight hours, read-out: Diarrhea Assay Rat (iv) ED50) was found to be 3.2 mg/kg.

`COC(=O)CC/C=C\CC[C@H]1C(=O)C[C@@H](O)[C@@H]1/C=C/CC(C)(O)/C=C/C1=CCCC1` (relative stereo) [Example 1, methyl 7-[3α-hydroxy-2β-(4-hydroxy-4-methyl-6-(1'-cyclopentenyl)-1,5-trans,trans-hexadienyl)-5-oxocyclopentane]-1-α-hept-4-cis-enoate]: the “Diarrhea Assay Rat (iv) ED50” value in the data set on diarrhea (Rat (iv) per table head, method text: intragastric, fasted rats, up to eight hours) was 3.2 mg/kg. For the same molecule, in “Diarrhea Assay” (ratio of rat diarrhea ED50 to Pavlov pouch antisecretory ED50, read-out: Thrapeutic Index ED50 diarrhea/ED50 antisecretory), the selectivity ratio stood at 160000.
